Source: PubChem BioAssay (NCI)
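At the GI50, growth is halved. TGI denotes the concentration required for complete inhibition of growth.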

Columns and labels:
Experiment in all cases: inhibition of tumour cell growth, NCI panel, 384-well format
[1] = tested on: COLO 205 colon
[2] = tested on: T-47D breast
[3] = tested on: HOP-62 NSCLC
[4] = tested on: NCI-H322M lung
[5] = tested on: SNB-75 CNS
[6] = tested on: UACC-62 melanoma
[7] = tested on: RXF 393 renal
[8] = tested on: OVCAR-5 ovarian
[9] = tested on: SK-MEL-2 melanoma
[10] = tested on: SF-268 CNS
[11] = tested on: K-562 leukemia
[12] = tested on: SR leukemia
[13] = tested on: HCT-116 colon
[14] = tested on: NCI-H23 lung
[15] = tested on: MDA-MB-468 breast
[16] = tested on: EKVX NSCLC
[17] = tested on: HOP-92 NSCLC
[18] = tested on: A549 NSCLC
[19] = tested on: UO-31 renal
[20] = tested on: HCT-15 colon
[21] = tested on: OVCAR-4 ovarian
[22] = tested on: NCI-H226 lung
[23] = tested on: MALME-3M melanoma
[24] = tested on: CAKI-1 renal
[25] = tested on: SW-620 colon
[26] = tested on: UACC-257 melanoma
[27] = tested on: NCI-H522 lung
[28] = tested on: PC-3 prostate
[29] = tested on: U251 glioblastoma
[30] = tested on: SF-295 CNS
[31] = tested on: BT-549 breast
[32] = tested on: HL-60(TB) leukemia
[33] = tested on: MDA-MB-231 breast
[34] = tested on: MDA-MB-435 melanoma
[35] = tested on: OVCAR-8 ovarian
[36] = tested on: SN12C renal
[37] = tested on: MCF7 breast
[38] = tested on: ACHN renal
[39] = tested on: OVCAR-3 ovarian
[40] = tested on: KM12 colon
[41] = tested on: HS 578T breast
[42] = tested on: DU-145 prostate
[43] = tested on: SF-539 CNS
[44] = tested on: M14 melanoma
[45] = tested on: SK-MEL-28 melanoma
[46] = tested on: SNB-19 CNS
[47] = tested on: A498 renal
[48] = tested on: MOLT-4 leukemia
[49] = tested on: IGROV1 ovarian
[50] = tested on: HT29 colon
[51] = tested on: TK-10 renal

CNC(=O)c1cn(C[C@H](F)CCc2ccc(NC(=O)Cc3cc(OC4CC(F)(F)C4)cc(C)n3)nn2)nn1
GI50 [1]: > 100 µM | TGI [1]: > 100 µM | GI50 [2]: > 100 µM | TGI [2]: > 100 µM | GI50 [3]: 0.127 µM | TGI [3]: 0.594 µM | GI50 [4]: 0.0772 µM | TGI [4]: 0.321 µM | GI50 [5]: > 100 µM | TGI [5]: > 100 µM | GI50 [6]: > 100 µM | TGI [6]: > 100 µM | GI50 [7]: 0.0276 µM | TGI [7]: 0.11 µM | GI50 [8]: > 100 µM | TGI [8]: > 100 µM | GI50 [9]: 0.436 µM | TGI [9]: > 100 µM | GI50 [10]: 0.407 µM | TGI [10]: > 100 µM | GI50 [11]: 85.1 µM | TGI [11]: > 100 µM | GI50 [12]: 18.8 µM | TGI [12]: > 100 µM | GI50 [13]: > 100 µM | TGI [13]: > 100 µM | GI50 [14]: > 100 µM | TGI [14]: > 100 µM | GI50 [15]: > 100 µM | TGI [15]: > 100 µM | GI50 [16]: > 100 µM | TGI [16]: > 100 µM | GI50 [17]: > 100 µM | TGI [17]: > 100 µM | GI50 [18]: 0.0278 µM | TGI [18]: 0.0879 µM | GI50 [19]: > 100 µM | TGI [19]: > 100 µM | GI50 [20]: > 100 µM | TGI [20]: > 100 µM | GI50 [21]: > 100 µM | TGI [21]: > 100 µM | GI50 [22]: > 100 µM | TGI [22]: > 100 µM | GI50 [23]: > 100 µM | TGI [23]: > 100 µM | GI50 [24]: 0.38 µM | TGI [24]: > 100 µM | GI50 [25]: > 100 µM | TGI [25]: > 100 µM | GI50 [26]: > 100 µM | TGI [26]: > 100 µM | GI50 [27]: 0.31 µM | TGI [27]: > 100 µM | GI50 [28]: > 100 µM | TGI [28]: > 100 µM | GI50 [29]: 0.119 µM | TGI [29]: > 100 µM | GI50 [30]: 1.51 µM | TGI [30]: > 100 µM | GI50 [31]: > 100 µM | TGI [31]: > 100 µM | GI50 [32]: > 100 µM | TGI [32]: > 100 µM | GI50 [33]: 0.389 µM | TGI [33]: > 100 µM | GI50 [34]: > 100 µM | TGI [34]: > 100 µM | GI50 [35]: > 100 µM | TGI [35]: > 100 µM | GI50 [36]: 0.0398 µM | TGI [36]: 0.32 µM | GI50 [37]: > 100 µM | TGI [37]: > 100 µM | GI50 [38]: > 100 µM | TGI [38]: > 100 µM | GI50 [39]: > 100 µM | TGI [39]: > 100 µM | GI50 [40]: 0.946 µM | TGI [40]: > 100 µM | GI50 [41]: 0.0721 µM | TGI [41]: 0.533 µM | GI50 [42]: 0.401 µM | TGI [42]: 7.68 µM | GI50 [43]: > 100 µM | TGI [43]: > 100 µM | GI50 [44]: > 100 µM | TGI [44]: > 100 µM | GI50 [45]: > 100 µM | TGI [45]: > 100 µM | GI50 [46]: > 100 µM | TGI [46]: > 100 µM | GI50 [47]: 0.163 µM | TGI [47]: 0.492 µM | GI50 [48]: 66.8 µM | TGI [48]: > 100 µM | GI50 [49]: > 100 µM | TGI [49]: > 100 µM | GI50 [50]: > 100 µM | TGI [50]: > 100 µM | GI50 [51]: 0.31 µM | TGI [51]: > 100 µM
